{"source": "patent US20260285850A1", "about": "“SUBSTITUTED OXAZOLIDINONES AND IMIDAZOLINONES AS HERBICIDES” (FMC CORPORATION, priority 2023, published 2026)", "assay_type_in_all_cases": "in vivo", "key": {"[1]": {"tested_on": "blackgrass (Alopecurus myosuroides)", "assay": "Test A postemergence application, visual injury rating 0-100", "in_short": "(§1)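 Seeds sown in loam-sand blend got a preemergence directed soil spray, or emerged plants (2-10 cm, one- to two-leaf) got a postemergence spray, of compound in non-phytotoxic solvent with surfactant. After 10 days in greenhouse, injury rated visually versus untreated controls on a 0 (no effect) to 100 (complete control) scale.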"}, "[2]": {"tested_on": "ryegrass, Italian (italian ryegrass, Lolium multiflorum)", "assay": "Test A postemergence application, visual injury rating 0-100", "in_short": "as §1"}, "[3]": {"tested_on": "ragweed (common ragweed, Ambrosia artemisiifolia)", "assay": "Test A postemergence application, visual injury rating 0-100", "in_short": "as §1"}, "[4]": {"tested_on": "oat, wild (wild oat, Avena fatua)", "assay": "Test A postemergence application, visual injury rating 0-100", "in_short": "as §1"}, "[5]": {"tested_on": "horseweed (Erigeron canadensis)", "assay": "Test A postemergence application, visual injury rating 0-100", "in_short": "as §1"}, "[6]": {"tested_on": "galium (catchweed bedstraw, Galium aparine)", "assay": "Test A postemergence application, visual injury rating 0-100", "in_short": "as §1"}, "soybean (Glycine max) [7]": {"tested_on": "soybean (Glycine max)", "assay": "Test A postemergence application, visual injury rating 0-100", "in_short": "as §1"}, "[8]": {"tested_on": "palmer (palmer amaranth, palmer pigweed, Amaranthus palmeri)", "assay": "Test A postemergence application, visual injury rating 0-100", "in_short": "as §1"}, "kochia (Bassia scoparia) [9]": {"tested_on": "kochia (Bassia scoparia)", "assay": "Test A postemergence application, visual injury rating 0-100", "in_short": "as §1"}, "[10]": {"tested_on": "wheat (Triticum aestivum)", "assay": "Test A postemergence application, visual injury rating 0-100", "in_short": "as §1"}, "[11]": {"tested_on": "barnyardgrass (Echinochloa crus-galli)", "assay": "Test A postemergence application, visual injury rating 0-100", "in_short": "as §1"}, "corn (Zea mays) [12]": {"tested_on": "corn (Zea mays)", "assay": "Test A postemergence application, visual injury rating 0-100", "in_short": "as §1"}, "[13]": {"tested_on": "green foxtail (Setaria viridis)", "assay": "Test A postemergence application, visual injury rating 0-100", "in_short": "as §1"}, "[14]": {"tested_on": "blackgrass (Alopecurus myosuroides)", "assay": "Test A preemergence soil spray, visual injury rating 0-100", "settings": "10 days", "in_short": "as §1"}, "[15]": {"tested_on": "ryegrass, Italian (italian ryegrass, Lolium multiflorum)", "assay": "Test A preemergence soil spray, visual injury rating 0-100", "settings": "10 days", "in_short": "as §1"}, "[16]": {"tested_on": "ragweed (common ragweed, Ambrosia artemisiifolia)", "assay": "Test A preemergence soil spray, visual injury rating 0-100", "settings": "10 days", "in_short": "as §1"}, "[17]": {"tested_on": "oat, wild (wild oat, Avena fatua)", "assay": "Test A preemergence soil spray, visual injury rating 0-100", "settings": "10 days", "in_short": "as §1"}, "soybean (Glycine max) [18]": {"tested_on": "soybean (Glycine max)", "assay": "Test A preemergence soil spray, visual injury rating 0-100", "settings": "10 days", "in_short": "as §1"}, "[19]": {"tested_on": "palmer (palmer amaranth, palmer pigweed, Amaranthus palmeri)", "assay": "Test A preemergence soil spray, visual injury rating 0-100", "settings": "10 days", "in_short": "as §1"}, "kochia (Bassia scoparia) [20]": {"tested_on": "kochia (Bassia scoparia)", "assay": "Test A preemergence soil spray, visual injury rating 0-100", "settings": "10 days", "in_short": "as §1"}, "[21]": {"tested_on": "wheat (Triticum aestivum)", "assay": "Test A preemergence soil spray, visual injury rating 0-100", "settings": "10 days", "in_short": "as §1"}, "[22]": {"tested_on": "barnyardgrass (Echinochloa crus-galli)", "assay": "Test A preemergence soil spray, visual injury rating 0-100", "settings": "10 days", "in_short": "as §1"}, "corn (Zea mays) [23]": {"tested_on": "corn (Zea mays)", "assay": "Test A preemergence soil spray, visual injury rating 0-100", "settings": "10 days", "in_short": "as §1"}, "[24]": {"tested_on": "green foxtail (Setaria viridis)", "assay": "Test A preemergence soil spray, visual injury rating 0-100", "settings": "10 days", "in_short": "as §1"}, "[25]": {"tested_on": "ducksalad (Heteranthera limosa)", "assay": "Test B flooded paddy test, visual plant response rating 0-100", "settings": "250 g ai/ha, Flood, applied to paddy water, evaluated after 13 days", "in_short": "(§2)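 Compounds applied to standing paddy water (3 cm above soil, maintained for the test duration) on 2-leaf-stage plants; visual rating vs controls at 13 days, greenhouse.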"}, "rice (Oryza sativa)": {"tested_on": "rice (Oryza sativa)", "assay": "Test B flooded paddy test, visual plant response rating 0-100", "settings": "250 g ai/ha, Flood, applied to paddy water, evaluated after 13 days", "in_short": "as §2"}, "[26]": {"tested_on": "sedge, umbrella (small-flower umbrella sedge, Cyperus difformis)", "assay": "Test B flooded paddy test, visual plant response rating 0-100", "settings": "250 g ai/ha, Flood, applied to paddy water, evaluated after 13 days", "in_short": "as §2"}, "[27]": {"tested_on": "barnyardgrass (Echinochloa crusgalli)", "assay": "Test B flooded paddy test, visual plant response rating 0-100", "settings": "250 g ai/ha, Flood, applied to paddy water, evaluated after 13 days", "in_short": "as §2"}, "[28]": {"settings": "62 g ai/ha, postemergence, 10 days, 0 = no effect, 100 = complete control"}, "[29]": {"settings": "Postemergence, 16 g ai/ha, greenhouse 10 days, 0 no effect, 100 complete control"}, "[30]": {"settings": "62 g ai/ha, 0 = no effect, 100 = complete control"}}}
{"smiles": "CCOC(=O)C1CC(NC(=O)C2(C)CN(c3cc(F)cc(F)c3)C(=O)O2)C1", "note": "(stereo not shown) [Compound 125]", "values": [{"measurement": "Blackgrass plant response rating (0-100)", "setting": "[1]; [28]", "value": 90}, {"measurement": "Blackgrass plant response rating (0 to 100 scale)", "setting": "[1]; [29]", "value": 90}, {"measurement": "Ryegrass, Italian plant response rating (0-100)", "setting": "[2]; [28]", "value": 70}, {"measurement": "Ryegrass, Italian plant response rating (0 to 100 scale)", "setting": "[2]; [29]", "value": 20}, {"measurement": "Ragweed plant response rating (0-100)", "setting": "[3]; [28]", "value": 50}, {"measurement": "Ragweed plant response rating (0 to 100 scale)", "setting": "[3]; [29]", "value": 20}, {"measurement": "Oat, Wild plant response rating (0-100)", "setting": "[4]; [28]", "value": 90}, {"measurement": "Oat, Wild plant response rating (0 to 100 scale)", "setting": "[4]; [29]", "value": 50}, {"measurement": "Horseweed plant response rating (0-100)", "setting": "[5]; [28]", "value": 20}, {"measurement": "Horseweed plant response rating (0 to 100 scale)", "setting": "[5]; [29]", "value": 0}, {"measurement": "Galium plant response rating (0-100)", "setting": "[6]; [28]", "value": 60}, {"measurement": "Galium plant response rating (0 to 100 scale)", "setting": "[6]; [29]", "value": 30}, {"measurement": "Soybean plant response rating (0-100)", "setting": "soybean (Glycine max) [7]; [28]", "value": 70}, {"measurement": "Soybean plant response rating (0 to 100 scale)", "setting": "soybean (Glycine max) [7]; [29]", "value": 50}, {"measurement": "Pigweed, Palmer plant response rating (0-100)", "setting": "[8]; [28]", "value": 70}, {"measurement": "Pigweed, Palmer plant response rating (0 to 100 scale)", "setting": "[8]; [29]", "value": 10}, {"measurement": "Kochia plant response rating (0-100)", "setting": "kochia (Bassia scoparia) [9]; [28]", "value": 80}, {"measurement": "Kochia plant response rating (0 to 100 scale)", "setting": "kochia (Bassia scoparia) [9]; [29]", "value": 30}, {"measurement": "Wheat plant response rating (0-100)", "setting": "[10]; [28]", "value": 90}, {"measurement": "Wheat plant response rating (0 to 100 scale)", "setting": "[10]; [29]", "value": 80}, {"measurement": "Barnyardgrass plant response rating (0-100)", "setting": "[11]; [28]", "value": 100}, {"measurement": "Barnyardgrass plant response rating (0 to 100 scale)", "setting": "[11]; [29]", "value": 60}, {"measurement": "Corn plant response rating (0-100)", "setting": "corn (Zea mays) [12]; [28]", "value": 100}, {"measurement": "Corn plant response rating (0 to 100 scale)", "setting": "corn (Zea mays) [12]; [29]", "value": 90}, {"measurement": "Foxtail, Green plant response rating (0-100)", "setting": "[13]; [28]", "value": 90}, {"measurement": "Foxtail, Green plant response rating (0 to 100 scale)", "setting": "[13]; [29]", "value": 80}, {"measurement": "Blackgrass plant response rating", "setting": "[14]; 16 g ai/ha, 0 to 100 scale", "value": 50}, {"measurement": "Blackgrass plant response rating (0-100)", "setting": "[14]; [30]", "value": 90}, {"measurement": "Ryegrass, Italian plant response rating", "setting": "[15]; 16 g ai/ha, 0 to 100 scale", "value": 0}, {"measurement": "Ryegrass, Italian plant response rating (0-100)", "setting": "[15]; [30]", "value": 90}, {"measurement": "Ragweed plant response rating", "setting": "[16]; 16 g ai/ha, 0 to 100 scale", "value": 0}, {"measurement": "Ragweed plant response rating (0-100)", "setting": "[16]; [30]", "value": 20}, {"measurement": "Oat, Wild plant response rating", "setting": "[17]; 16 g ai/ha, 0 to 100 scale", "value": 90}, {"measurement": "Oat, Wild plant response rating (0-100)", "setting": "[17]; [30]", "value": 90}, {"measurement": "Soybean plant response rating", "setting": "soybean (Glycine max) [18]; 16 g ai/ha, 0 to 100 scale", "value": 10}, {"measurement": "Soybean plant response rating (0-100)", "setting": "soybean (Glycine max) [18]; [30]", "value": 0}, {"measurement": "Pigweed, Palmer plant response rating", "setting": "[19]; 16 g ai/ha, 0 to 100 scale", "value": 20}, {"measurement": "Pigweed, Palmer plant response rating (0-100)", "setting": "[19]; [30]", "value": 50}, {"measurement": "Kochia plant response rating", "setting": "kochia (Bassia scoparia) [20]; 16 g ai/ha, 0 to 100 scale", "value": 0}, {"measurement": "Kochia plant response rating (0-100)", "setting": "kochia (Bassia scoparia) [20]; [30]", "value": 90}, {"measurement": "Wheat plant response rating", "setting": "[21]; 16 g ai/ha, 0 to 100 scale", "value": 30}, {"measurement": "Wheat plant response rating (0-100)", "setting": "[21]; [30]", "value": 60}, {"measurement": "Barnyardgrass plant response rating", "setting": "[22]; 16 g ai/ha, 0 to 100 scale", "value": 0}, {"measurement": "Barnyardgrass plant response rating (0-100)", "setting": "[22]; [30]", "value": 50}, {"measurement": "Corn plant response rating", "setting": "corn (Zea mays) [23]; 16 g ai/ha, 0 to 100 scale", "value": 0}, {"measurement": "Corn plant response rating (0-100)", "setting": "corn (Zea mays) [23]; [30]", "value": 90}, {"measurement": "Foxtail, Green plant response rating", "setting": "[24]; 16 g ai/ha, 0 to 100 scale", "value": 10}, {"measurement": "Foxtail, Green plant response rating (0-100)", "setting": "[24]; [30]", "value": 90}, {"measurement": "Plant response rating, Ducksalad (0 to 100 scale, 0 is no effect and 100 is complete control)", "setting": "[25]", "value": 0}, {"measurement": "Plant response rating, Rice (0 to 100 scale, 0 is no effect and 100 is complete control)", "setting": "rice (Oryza sativa)", "value": 0}, {"measurement": "Plant response rating, Sedge, Umbrella (0 to 100 scale, 0 is no effect and 100 is complete control)", "setting": "[26]", "value": 0}, {"measurement": "Plant response rating, Barnyardgrass (0 to 100 scale, 0 is no effect and 100 is complete control)", "setting": "[27]", "value": 0}]}
